Patent US20130137753A1, “METHODS AND COMPOSITIONS FOR THE DIAGNOSIS AND TREATMENT OF BREAST CANCER” (UNIVERSITY OF SOUTH ALABAMA, priority 2010, published 2013)

Tests used:
Merlin [1] = assay: Western blot of Merlin in MDA-MB-435 cells treated with Lactacystin and wortmannin; format: cell-based; details: combined treatment Lactacystin 10-25 μM and wortmannin 100 nM, FIG. 4E
Method: FIG. 4 depicts OPN targeting Merlin for Akt-mediated proteasomal degradation. FIG. 4A is a Western blot of SUM159 cells transfected with Merlin and treated with OPN and Lactacystin. […] The smear represents ubiquitinated Merlin. FIG. 4D is a Western blot of SUM159 transfected with HA-ubiquitin and Merlin and treated with OPN (100 ng/ml), Lactacystin (10 μM) and Akt inhibitor IV. FIG. 4E is a Western blot of MDA-MB-435 cells treated with the PI-3-kinase inhibitor, wortmannin and Lactacystin. Cells were pre-treated with Wortmannin (100 nM) for 1 hr followed by Lactacystin for 4.5 hours.
The converse was seen when MDAMB-435 cells were treated with the proteasome inhibitor, Lactacystin (10-25 μM) and the PI-3-kinase inhibitor, wortmannin (100 nM). […] Silencing the expression of OPN reduced the overall levels of ubiquitinated Merlin; in combination with Akt inhibitor and Lactacystin, abrogating OPN expression caused a notable decrease in the ubiquitinated Merlin (FIG. 4F).

Akt = assay: Western blot of phospho-Akt and Merlin in MCF10AT cells treated with OPN and Akt inhibitor IV; format: cell-based, human; details: FIG. 4B
Source text: (§1) Western Blotting Analysis—Immunoblotting was done with anti-Merlin (Santa Cruz Biotech, Santa Cruz, Calif.), phospho-Ser473-Akt (Cell Signaling, Danvers, MAT), total Akt (Cell Signaling), anti-mouse HA (Santa Cruz), antiphospho-Ser315 Merlin, and anti-GAPDH (Cell Signaling). Anti-rabbit or anti-mouse HRP conjugated secondary antibody was used for detection and blots were developed with SuperSignal substrate (Pierce, Rockford, Ill.) and exposed using a Fuji LAS3000 imager.
(§2) Transfection and Drug Treatment—Cells were transfected with empty vector, Merlin (WT; wild-type) or T230A S315A Merlin mutant and treated with clasto-Lactacystin β-Lactone (Sigma, St. Louis, Mo.) for 2 hours. Recombinant OPN (100 ng/mL) (R&D Systems, Minneapolis, Minn.) was added and cells were lysed after 6 hours. Where indicated, cells were first treated with Akt inhibitor IV (Calbiochem) in serum free media for 30 min followed by 100 ng/mL human rOPN for 24 hours.
OPN interacts with a variety of cell surface receptors including CD44 and multiple integrins to activate signaling via the Akt pathway (31,38,39). […] The levels of total Akt remain unaltered. MCF10AT cells were also treated with Akt inhibitor IV in addition to OPN. […] Phosphorylation of Merlin via Akt targets it for degradation by the proteasome (15,40,41).

Merlin [2] = assay: Immunoprecipitation of endogenous Merlin and anti-HA blot for ubiquitination in MCF10AT cells transfected with HA-ubiquitin; format: cell-based, human
Method: (§3) Immunoprecipitation—Cells were transfected with pcDNA3.1 HA-ubiquitin alone or in combination with pIRES2-myc-Merlin and incubated for 24 hrs. Cells were treated with 10 μM Lactacystin, 100 ng/ml OPN and 10 μM AKT inhibitor IV for 12 hrs and lysed in NP-40 buffer. The lysate was immunoprecipitated with anti-Merlin antibody and the immunoprecipitate was assessed by immunoblotting.
To examine if OPN can induce ubiquitination of endogenous Merlin leading to its proteasomal degradation, MCF10AT cells were transfected with a HA-ubiquitin expressing construct. MCF10AT cells were transfected with HA-ubiquitin and treated with OPN, Lactacystin and Akt inhibitor IV. Cell lysate (2 mg) harvested in NP40 buffer was immunoprecipitated overnight for endogenous Merlin. The immunoprecipitate was immunoblotted with anti-HA antibody. Merlin and GAPDH levels from the cell lysates were inputs for the experiment.

Merlin [3] = assay: Immunoprecipitation of Merlin and anti-HA blot for ubiquitination in SUM159 cells transfected with HA-ubiquitin and Merlin; format: cell-based, human; details: SUM159 cells constitutively expressing Merlin, OPN 100 ng/ml, Lactacystin 10 μM, FIG. 4D
Method: as §3
To assess the role of activated Akt induced by OPN, cells were co-treated with an Akt inhibitor. SUM159 cells were transfected with HA-ubiquitin and Merlin and treated with OPN (100 ng/ml), Lactacystin (10 μM) and Akt inhibitor IV. Cell lysate (1 mg) harvested in NP40 buffer was immunoprecipitated for Merlin. The immunoprecipitate was immunoblotted with anti-HA antibody. […] Merlin ubiquitination was enhanced when co-treated with OPN and was abolished in the presence of Akt inhibitor re-affirming the role of Akt downstream of OPN in modulating the stability of Merlin (FIG. 4D).

Merlin [4] = assay: Western blot of Merlin protein levels in SUM159 cells transfected with Merlin cDNA and treated with recombinant OPN and Lactacystin; format: cell-based, human; details: SUM159 cells transfected with Merlin cDNA, recombinant OPN 100 ng/mL, FIG. 4A
Source text: as §1, §2
Akt signaling initiated downstream of OPN may regulate Merlin. To examine the effects of OPN on the post-translational regulation of Merlin, specifically the stability of Merlin protein, SUM159 breast cancer cells were transfected with Merlin cDNA and treated with recombinant OPN.

Merlin [5] = assay: Western blot of phosphorylated Merlin (Serine 315) in SUM159 cells transfected with Merlin and treated with OPN; format: cell-based, human; details: SUM159 cells transfected with Merlin, treated with OPN, FIG. 5A
Source text: as §1
Lysate from SUM159 cells transfected with Merlin and treated with OPN was probed for total Merlin and phosphorylated Merlin (Serine 315). GAPDH was used as a loading control. […] Phosphorylation of Merlin at this residue has been reported to target it for proteasome-mediated degradation (15,40). In particular, […] of Serine 315 and Threonine 230 makes Merlin refractory to OPN. SUM159 cells were transfected with Merlin (WT) or the T230A/S315A Merlin mutant and treated with OPN and Lactacystin. Cell lysates were probed for total Merlin. GAPDH was used as a loading control. Mutant Merlin (T230A S315A) is not degraded in response to OPN, whereas wild-type Merlin is degraded by OPN. […] It was further determined that while OPN is able to induce degradation of Merlin, the Merlin mutant T230A S315A (that cannot be phosphorylated by Akt) is resistant to the effects of OPN (FIG. 5B). […]

Molecule: CC(=O)N[C@@H](CSC(=O)[C@]1([C@@H](O)C(C)C)NC(=O)[C@H](C)[C@@H]1O)C(=O)O
- Merlin expression (Merlin [1]): restored Merlin expression

Molecule: Akt inhibitor IV
- levels of Akt phosphorylation (Akt; Akt inhibitor IV in addition to OPN): decreased
- levels of Merlin (Akt; Akt inhibitor IV in the presence of OPN): restored
- ubiquitination of endogenous Merlin (Merlin [2]; co-treatment with Akt inhibitor in the presence of OPN): abolished
- Merlin ubiquitination (Merlin [3]): abolished

Molecule: OPN: Recombinant OPN (R&D Systems), human rOPN; secreted phosphoglycoprotein osteopontin
- Akt activation (phosphorylation of Akt to phospho-Akt) (Akt; recombinant OPN alone): activated Akt
- levels of Merlin (Akt; recombinant OPN alone): decrease in the levels of Merlin
- protein levels of Merlin (Merlin [4]): decrease in the protein levels of Merlin
- ubiquitination of endogenous Merlin (smear) (Merlin [2]; MCF10AT cells transfected with HA-ubiquitin, FIG. 4C): some ubiquitination
- Merlin ubiquitination (Merlin [3]): enhanced
- phosphorylation of Merlin at Ser315 (Merlin [5]): phosphorylation of Merlin at the Ser315 position
